Where two headings read alike, the source gives them in different places.
Experiments:
[1] = system: HCV replicon in HUH-7 cells; experiment: HCV replicon FRET assay; assay type: cell-based, Hepatitis C virus (strain 1b); conditions: HCV replicon cell assay, HUH-7, read-out: EC50 Range
From the text: Generation of HCV Replicon
An HCV replicon whole cell system was established as described by Lohmann V, Korner F, Koch J, Herian U, Theilmann L, Bartenschlager R., Science 285(5424):110-3 (1999). This system enabled us to evaluate the effects of our HCV Protease compounds on HCV RNA replication. Briefly, using the HCV strain 1b sequence described in the Lohmann paper (Assession number:AJ238799), an HCV cDNA was synthesized by Operon Technologies, Inc. (Alameda, Calif.), and the full-length replicon was then assembled in plasmid pGem9zf(+) (Promega, Madison, Wis.) using standard molecular biology techniques. The replicon consists of (i) the HCV 5′ UTR fused to the first 12 amino acids of the capsid protein, (ii) the neomycin phosphotransferase gene (neo), (iii) the IRES from encephalomyocarditis virus (EMCV), and (iv) HCV NS3 to NS5B genes and the HCV 3′ UTR. Plasmid DNAs were linearized with ScaI and RNA transcripts were synthesized in vitro using the T7 MegaScript transcription kit (Ambion, Austin, Tex.) according to manufacturer's directions. In vitro transcripts of the cDNA were transfected into the human hepatoma cell line, HUH-7. […] Resulting cell lines were characterized for positive and negative strand RNA production and protein production over time.
The HCV replicon FRET assay was developed to monitor the inhibitory effects of compounds described in the disclosure on HCV viral replication. HUH-7 cells, constitutively expressing the HCV replicon, were grown in Dulbecco's Modified Eagle Media (DMEM) (Gibco-BRL) containing 10% Fetal calf serum (FCS) (Sigma) and 1 mg/mL G418 (Gibco-BRL). Cells were seeded the night before (1.5×10^4 cells/well) in 96-well tissue-culture sterile plates. Compound and no compound controls were prepared in DMEM containing 4% FCS, 1:100 Penicillin/Streptomysin (Gibco-BRL), 1:100 L-glutamine and 5% DMSO in the dilution plate (0.5% DMSO final concentration in the assay). Compound/DMSO mixes were added to the cells and incubated for 4 days at 37° C. After 4 days, cells were first assessed for cytotoxicity using alamar Blue (Trek Diagnotstic Systems) for a CC50 reading. The toxicity of compound (CC50) was determined by adding 1/10th volume of alamar Blue to the media incubating the cells. After 4 h, the fluorescence signal from each well was read, with an excitation wavelength at 530 nm and an emission wavelength of 580 nm, using the Cytofluor Series 4000 (Perspective Biosystems). Plates were then rinsed thoroughly with Phosphate-Buffered Saline (PBS) (3 times 150 μl).

[2] = target: T1, HCV NS3/4A protease complex, BMS strain (UniProt P27958, species not given/STRAIN_BMS); experiment: FRET peptide assay to monitor HCV NS3/4A proteolytic activity (BMS strain); assay type: biochemical, Hepatitis C virus (genotype 1a)
T1 construct: DNA encoding the recombinant HCV NS3/4A protease complex (amino acids 1027 to 1711) for these strains [H77 and J4L6S]; fused on or other part: For the H77 and J4L6S constructs, a three-lysine solubilising tail at the NS4A C-terminus and a Ni-NTA-purifiable tag from pET21b
T1 sequence (P27958 1027-1657, stated change not applied, one chain of several): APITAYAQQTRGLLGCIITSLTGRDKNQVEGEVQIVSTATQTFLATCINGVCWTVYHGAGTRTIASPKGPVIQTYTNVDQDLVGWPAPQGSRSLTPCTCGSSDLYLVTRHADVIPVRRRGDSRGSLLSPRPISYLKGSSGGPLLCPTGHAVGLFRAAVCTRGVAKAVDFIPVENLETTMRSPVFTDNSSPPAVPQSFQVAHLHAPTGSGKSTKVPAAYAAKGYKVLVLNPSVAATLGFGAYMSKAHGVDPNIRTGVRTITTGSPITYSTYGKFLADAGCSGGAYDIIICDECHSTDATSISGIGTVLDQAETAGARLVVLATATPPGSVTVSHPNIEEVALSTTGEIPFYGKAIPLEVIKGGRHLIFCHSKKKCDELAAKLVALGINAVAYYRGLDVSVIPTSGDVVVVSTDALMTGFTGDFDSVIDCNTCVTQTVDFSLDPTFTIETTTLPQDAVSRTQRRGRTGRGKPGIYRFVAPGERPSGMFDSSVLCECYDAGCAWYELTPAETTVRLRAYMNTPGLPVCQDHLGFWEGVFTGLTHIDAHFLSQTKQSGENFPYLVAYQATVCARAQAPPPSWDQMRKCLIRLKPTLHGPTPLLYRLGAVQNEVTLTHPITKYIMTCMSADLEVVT
From the text: Generation of Recombinant HCV NS3/4A Protease Complex
HCV NS3 protease complexes, derived from the BMS strain, H77 strain or J4L6S strain, were generated, as described below. These purified recombinant proteins were generated for use in a homogeneous assay (see below) to provide an indication of how effective compounds of the present disclosure would be in inhibiting HCV NS3 proteolytic activity.
Serum from an HCV-infected patient was obtained from Dr. T. Wright, San Francisco Hospital. An engineered full-length cDNA (compliment deoxyribonucleic acid) template of the HCV genome (BMS strain) was constructed from DNA fragments obtained by reverse transcription-PCR (RT-PCR) of serum RNA (ribonucleic acid) and using primers selected on the basis of homology between other genotype 1a strains. From the determination of the entire genome sequence, a genotype 1a was assigned to the HCV isolate according to the classification of Simmonds et al. (See P Simmonds, K A Rose, S Graham, S W Chan, F McOmish, B C Dow, E A Follett, P L Yap and H Marsden, J. Clin. Microbiol., 31(6), 1493-1503 (1993)). […] The infectious clones, H77 (1a genotype) and J4L6S (1b genotype) were obtained from R. Purcell (NIH) and the sequences are published in Genbank (AAB67036, see Yanagi, M., Purcell, R. H., Emerson, S. U. and Bukh, J. Proc. Natl. Acad. Sci. U.S.A. 94(16), 8738-8743 (1997); AF054247, see Yanagi, M., St Claire, M., Shapiro, M., Emerson, S. U., Purcell, R. H. and Bukh, J, Virology 244 (1), 161-172. (1998)).
The H77 and J4L6S strains were used for production of recombinant NS3/4A protease complexes. DNA encoding the recombinant HCV NS3/4A protease complex (amino acids 1027 to 1711) for these strains were manipulated as described by P. Gallinari et al. (see Gallinari P, Paolini C, Brennan D, Nardi C, Steinkuhler C, De Francesco R. Biochemistry. 38(17):5620-32, (1999)). Briefly, a three-lysine solubilizing tail was added at the 3′-end of the NS4A coding region. The cysteine in the P1 position of the NS4A-NS4B cleavage site (amino acid 1711) was changed to a glycine to avoid the proteolytic cleavage of the lysine tag. Furthermore, a cysteine to serine mutation was introduced by PCR at amino acid position 1454 to prevent the autolytic cleavage in the NS3 helicase domain. The variant DNA fragment was cloned in the pET21b bacterial expression vector (Novagen) and the NS3/4A complex was expressed in Escherichia coli strain BL21 (DE3) (Invitrogen) following the protocol described by P. Gallinari et al. (see Gallinari P, Brennan D, Nardi C, Brunetti M, Tomei L, Steinkuhler C, De Francesco R., J. Virol. 72(8):6758-69 (1998)) with modifications. Briefly, the NS3/4A protease complex expression was induced with 0.5 millimolar (mM) Isopropyl β-D-1-thiogalactopyranoside (IPTG) for 22 hours (h) at 20° C. A typical fermentation (1 Liter (L)) yielded approximately 10 grams (g) of wet cell paste. The cells were resuspended in lysis buffer (10 mL/g) consisting of 25 mM N-(2-Hydroxyethyl)piperazine-N′-(2-Ethane Sulfonic acid) (HEPES), pH 7.5, 20% glycerol, 500 mM Sodium Chloride (NaCl), 0.5% Triton X-100, 1 microgram/milliliter (“μg/mL”) lysozyme, 5 mM Magnesium Chloride (MgCl2), 1 μg/mL DnaseI, 5 mM β-Mercaptoethanol (βME), Protease inhibitor—Ethylenediamine Tetraacetic acid (EDTA) free (Roche), homogenized and incubated for 20 minutes (min) at 4° C. The homogenate was sonicated and clarified by ultra-centrifugation at 235000 g for 1 h at 4° C. Imidazole was added to the supernatant to a final concentration of 15 mM and the pH adjusted to 8.0. The crude protein extract was loaded on a Nickel—Nitrilotriacetic acid (Ni-NTA) column pre-equilibrated with buffer B (25 mM HEPES, pH 8.0, 20% glycerol, 500 mM NaCl, 0.5% Triton X-100, 15 mM imidazole, 5 mM βME). The sample was loaded at a flow rate of 1 mL/min. The column was washed with 15 column volumes of buffer C (same as buffer B except with 0.2% Triton X-100). […]

[3] = read-out: IC 50 Range; NS3/4A BMS strain, enzyme assay
[4] = NS3/4A BMS strain, enzyme assay; read-out: IC 50 Range

Row | Compound | EC50 ([1]; Hepatitis C virus) [µM] | IC50 [2, 4] [µM] | other results
1 | C=CC1CC1(NC(=O)[C@@H]1C[C@@H](NC(=O)OCC2c3ccccc3-c3ccccc32)CN1C(=O)[C@@H](NC(=O)OC(C)(C)C)C(C)(C)C)C(=O)NS(=O)(=O)C1CC1 (mixture of isomers) [Compound 5, [1-(2-tert-butoxycarbonylamino-3,3-dimethyl-butyryl)-5-(1-cyclopropanesulfonylaminocarbonyl-2-vinyl-cyclopropylcarbamoyl)-pyrrolidin-3-yl]-carbamic acid 9H-fluoren-9-ylmethyl ester] | 0.15 to 15 |  | IC50 [2, 3]: 0.15 to 15 µM
2 | C=CC1CC1(NC(=O)[C@@H]1C[C@@H](NC(=O)c2sc3ccccc3c2Cl)CN1C(=O)[C@@H](NC(=O)CC1CC1)C(C)(C)C)C(=O)O (single isomer, unassigned) [Compound 1, 1-({4-[(3-Chloro-benzo[b]thiophene-2-carbonyl)-amino]-1-[2-(2-cyclopropyl-acetylamino)-3,3-dimethyl-butyryl]-pyrrolidine-2-carbonyl}-amino)-2-vinyl-cyclopropanecarboxylic acid] |  | 0.15 to 15 | 
3 | C=CC1CC1(NC(=O)[C@@H]1C[C@@H](NC(=O)c2sc3ccccc3c2Cl)CN1C(=O)[C@@H](NC(=O)CC1CC1)C(C)(C)C)C(=O)O (single isomer, unassigned) [Compound 2, 1-({4-[(3-Chloro-benzo[b]thiophene-2-carbonyl)-amino]-1-[2-(2-cyclopropyl-acetylamino)-3,3-dimethyl-butyryl]-pyrrolidine-2-carbonyl}-amino)-2-vinyl-cyclopropanecarboxylic acid] |  | > 15 | 
4 | C=CC1CC1(NC(=O)[C@@H]1C[C@@H](NC(=O)c2sc3ccccc3c2Cl)CN1C(=O)[C@@H](NC(=O)CC1CC1)C(C)(C)C)C(=O)NS(=O)(=O)C1CC1 (single isomer, unassigned) [Compound 3] | 0.15 to 15 | < 0.15 | 
5 | C=CC1CC1(NC(=O)[C@@H]1C[C@@H](NC(=O)c2sc3ccccc3c2Cl)CN1C(=O)[C@@H](NC(=O)CC1CC1)C(C)(C)C)C(=O)NS(=O)(=O)C1CC1 (single isomer, unassigned) [Compound 4] |  | < 0.15 | EC50 [1]: 0.15 to 15 µM
6 | C=CC1CC1(NC(=O)[C@@H]1CC(NC(=O)c2cc(-c3ccccc3)nc3ccccc23)CN1C(=O)[C@@H](NC(=O)OC(C)(C)C)C(C)(C)C)C(=O)NS(=O)(=O)C1CC1 (stereo partly shown) [Compound 6] | 0.15 to 15 | < 0.15 | 
7 | C=CC1CC1(NC(=O)[C@@H]1C[C@@H](NC(=O)OCC2c3ccccc3-c3ccccc32)CN1C(=O)[C@@H](NC(=O)CC1CC1)C(C)(C)C)C(=O)NS(=O)(=O)C1CC1 (stereo partly shown) [Compound 7] | > 15 | 0.15 to 15 | 
8 | C=CC1CC1(NC(=O)[C@@H]1C[C@@H](NC(=O)c2ccnc3ccccc23)CN1C(=O)[C@@H](NC(=O)CC1CC1)C(C)(C)C)C(=O)NS(=O)(=O)C1CC1 (stereo partly shown) [Compound 10] | > 15 | 0.15 to 15 | 
9 | C=CC1CC1(NC(=O)[C@@H]1C[C@@H](NC(=O)c2ccnc3ccccc23)CN1C(=O)[C@@H](NC(=O)CC1CC1)C(C)(C)C)C(=O)NS(=O)(=O)C1CC1 (stereo partly shown) [Compound 11] |  | 0.15 to 15 | 
10 | C=CC1CC1(NC(=O)[C@@H]1C[C@@H](NC(=O)c2ccsc2)CN1C(=O)[C@@H](NC(=O)CC1CC1)C(C)(C)C)C(=O)NS(=O)(=O)C1CC1 (stereo partly shown) [Compound 12] | > 15 | 0.15 to 15 | 
11 | C=CC1CC1(NC(=O)[C@@H]1C[C@@H](NC(=O)c2ccncc2)CN1C(=O)[C@@H](NC(=O)CC1CC1)C(C)(C)C)C(=O)NS(=O)(=O)C1CC1 (stereo partly shown) [Compound 15] |  | 0.15 to 15 | 
12 | C=CC1CC1(NC(=O)[C@@H]1C[C@@H](NC(=O)c2cnc(N3CCCCC3)nc2-c2ccccc2)CN1C(=O)[C@@H](NC(=O)CC1CC1)C(C)(C)C)C(=O)NS(=O)(=O)C1CC1 (stereo partly shown) [Compound 23] |  | 0.15 to 15 | 
13 | C=CC1CC1(NC(=O)[C@@H]1C[C@@H](NC(=O)c2c(OC)cccc2OC)CN1C(=O)[C@@H](NC(=O)CC1CC1)C(C)(C)C)C(=O)NS(=O)(=O)C1CC1 (stereo partly shown) [Compound 36] |  | 0.15 to 15 | 
14 | C=CC1CC1(NC(=O)[C@@H]1C[C@@H](N(C)C(=O)c2cc(-c3ccccc3)nc3ccccc23)CN1C(=O)[C@@H](NC(=O)OC(C)(C)C)C(C)(C)C)C(=O)NS(=O)(=O)C1CC1 (stereo partly shown) [Compound 42] |  | 0.15 to 15 | 
15 | C=CC1CC1(NC(=O)[C@@H]1C[C@@H](NC(=S)Nc2cccc3ccccc23)CN1C(=O)[C@@H](NC(=O)OC(C)(C)C)C(C)(C)C)C(=O)NS(=O)(=O)C1CC1 (stereo partly shown) [Compound 46] |  |  | IC50 [2, 3]: 0.15 to 15 µM
16 | C=CC1CC1(NC(=O)[C@@H]1C[C@@H](NC(=O)N2CCc3ccccc3C2)CN1C(=O)[C@@H](NC(=O)CC1CC1)C(C)(C)C)C(=O)NS(=O)(=O)C1CC1 (stereo partly shown) [Compound 54] |  |  | IC50 [2, 3]: 0.15 to 15 µM
17 | C=CC1CC1(NC(=O)[C@@H]1C[C@@H](N2CCN(Cc3ccccc3)CC2)CN1C(=O)[C@@H](NC(=O)OC)C(C)(C)C)C(=O)NS(=O)(=O)C1CC1 (stereo partly shown) [Compound 56] |  | > 15 | 
18 | C=CC1CC1(NC(=O)[C@@H]1C[C@@H](N2Cc3ccccc3C2)CN1C(=O)[C@@H](NC(=O)C1CC1)C(C)(C)C)C(=O)NS(=O)(=O)C1CC1 (stereo partly shown) [Compound 57] |  | 0.15 to 15 | 
